# Read-outs that look alike come from different tables or passages of the source.
# Experiments:
# [1] = target: T1, Human serum albumin (HSA) (Homo sapiens, UniProt P02768); assay: Steady state fluorescence quenching of HSA by HA; type: binding; settings: for KSV (Stern-Volmer quenching constant) / n (binding sites): pH 7.4, HSA 5 µM; for TΔS°: van't Hoff
# T1 construct: I (residues 1–195), II (196–383), III (384–585); purchased Sigma Aldrich A1887
# Protocol: Fluorescence emission spectra were recorded in range of 300–400 nm on a Shimadzu 5301PC fluorescence spectrophotometer equipped with water circulator (Julabo Eyela) at excitation wavelength of 295 nm. Both the excitation and emission slits were set at 3 nm. […] Respective blanks were subtracted. […] Furthermore if a quencher, Q, form complex, Q n B, with protein B and have ‘n’ multiple (equivalent and independent) binding sites then quenching reaction is often represented as: [drawing 5] (2) and its binding constant (Kb ) is given by equation 3:[18]
# [drawing 6] (3) If the total amount of protein (with and without bound Q) is [B o], then [drawing 7] (4) [drawing 8] (5) where [B] is the concentration of the unbound protein. The fluorescence intensity is proportional to the protein concentration as described below: [drawing 9] (6) then, relationship between the fluorescence intensity and unbound protein is expressed as:
# [drawing 10] (7) So, if the formation of a nonfluorescent fluorophore–quencher complex occurs, then, the value of K b can be obtained by using equation 7.
# [2] = target: T1, Human serum albumin (HSA); assay: Binding displacement measurement using site markers (fluorescence, Stern-Volmer); settings: protein:marker 1:1
# Protocol: Different site markers warfarin (WAR) for site I and diazepam (DIA) for site II [19], [20] were used for performing displacement experiments. […] The fluorescence emission spectra were recorded as mentioned in fluorescence measurements and the binding constant values of drug–protein–marker were evaluated using Stern–Volmer equation.
# [3] = target: T1, Human serum albumin (HSA); assay: Isothermal titration calorimetry (ITC), sequential model of two binding sites; settings: for van't Hoff enthalpy: equation 12; for ΔCP (change in heat capacity): 25-37 °C
# Protocol: Prior to the titration experiment, all solutions were degassed properly on a thermovac. The 1.44 mL sample and reference cell of the calorimeter were loaded with HSA and 20 mM sodium phosphate buffer (pH 7.4), respectively. […] The reference power was set at 16 µcal s^−1. […] Heats of dilution for the ligand and protein were subtracted from the integrated data before curve fitting. The data were fitted and analyzed with a sequential model of two binding sites using Origin 7.0 provided with the MicroCal instrument. Association constant (K b) and standard enthalpy change (ΔH°) were directly obtained after fitting while ΔG° was calculated from equation 8. The ΔS ^o was calculated using the equation: [drawing 13] (10) and change in specific heat capacity can be calculated from the equation:
# [drawing 14] (11) Further the standard van’t Hoff enthalpy [drawing 15] at each temperature was calculated using equation: [drawing 16] (12) here, K(T1) and K(T2) are the values of binding constant at temperatures T 1 and T 2 respectively.
# [4] = target: T1, Human serum albumin (HSA); assay: Differential scanning calorimetry (DSC) thermostability of HSA in presence of HA; type: binding
# Protocol: The differential scanning calorimetric measurements were carried out using VP-DSC microcalorimeter (MicroCal, Northampton, MA). The buffer and protein solutions were degassed under mild vacuum prior to the experiment. Samples were prepared in 20 mM sodium phosphate buffer, pH 7.4. […] 1∶0, 1∶5, and 1∶10 were performed from 25 to 90°C at a scan rate of 0.5°C/min. Data were analyzed using Origin software provided with the instrument to obtain the temperature at the midpoint of the unfolding transition (T m) and calorimetric enthalpy (ΔH°).
# [5] = target: T1, Human serum albumin (HSA); assay: Esterase-like activity of HSA toward p-NPA in presence of HA; type: biochemical
# [6] = set-up: method as in PMID 12675874; settings: cited from earlier work
# [7] = set-up: method as in PMID 1643710, PMID 11721007; settings: cited from earlier work
# T1 sequence (P02768 25-609): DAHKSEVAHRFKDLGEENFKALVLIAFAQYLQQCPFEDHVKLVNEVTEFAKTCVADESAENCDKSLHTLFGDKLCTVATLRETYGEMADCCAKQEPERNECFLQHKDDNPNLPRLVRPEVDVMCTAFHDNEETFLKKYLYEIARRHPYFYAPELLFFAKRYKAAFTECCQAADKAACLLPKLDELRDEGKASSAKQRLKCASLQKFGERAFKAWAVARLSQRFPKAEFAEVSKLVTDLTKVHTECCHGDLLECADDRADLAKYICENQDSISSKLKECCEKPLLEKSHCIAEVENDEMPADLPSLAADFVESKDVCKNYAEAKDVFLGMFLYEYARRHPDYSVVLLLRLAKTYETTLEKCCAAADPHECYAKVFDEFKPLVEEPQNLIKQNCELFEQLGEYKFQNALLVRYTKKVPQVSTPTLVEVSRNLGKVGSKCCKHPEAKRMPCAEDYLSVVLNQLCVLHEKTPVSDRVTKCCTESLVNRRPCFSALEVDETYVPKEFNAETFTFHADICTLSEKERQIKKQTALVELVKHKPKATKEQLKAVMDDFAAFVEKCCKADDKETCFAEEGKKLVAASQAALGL
smiles,measurement,setting,value
"O=C(O)CNC(=O)c1ccccc1 [HA, hippuric acid]",k q (bimolecular rate constant),[1]; 25 °C,(1.36±0.06 ) ×10^12 M^−1 s^−1
same,ΔG°,[1]; 25 °C,-5.21 ± 0.02 kcal/mol
same,KSV (Stern-Volmer quenching constant),[1]; 25 °C,(7.80±0.36) ×10^3 M^−1
same,n (binding sites),[1]; 25 °C,0.98±0.02
same,TΔS°,[1]; 25 °C,-23.48 ± 0.24 kcal/mol
same,k q (bimolecular rate constant),[1]; 30 °C,(5.77±0.03 ) ×10^11 M^−1 s^−1
same,ΔG°,[1]; 30 °C,-4.88 ± 0.06 kcal/mol
same,KSV (Stern-Volmer quenching constant),[1]; 30 °C,(3.30±0.02) ×10^3 M^−1
same,n (binding sites),[1]; 30 °C,0.99±0.01
same,TΔS°,[1]; 30 °C,-23.88 ± 0.24 kcal/mol
same,k q (bimolecular rate constant),[1]; 37 °C,(2.29±0.01 ) ×10^11 M^−1 s^−1
same,ΔG°,[1]; 37 °C,-4.28 ± 0.01 kcal/mol
same,KSV (Stern-Volmer quenching constant),[1]; 37 °C,(1.31±0.08) ×10^3 M^−1
same,n (binding sites),[1]; 37 °C,0.97±0.02
same,TΔS°,[1]; 37 °C,-24.43 ± 0.25 kcal/mol
same,K b (order of magnitude),"[1]; spectroscopic results, single site",~10^3
same,K sv of HSA-HA in presence of site marker,[2]; in presence of DIA (site II marker),(2.03±0.03)× 10^3 M^−1
same,K sv of HSA-HA in presence of site marker,[2]; in presence of WAR (site I marker),(2.74±0.04)×10^3 M^−1
same,van't Hoff enthalpy,"[3]; 25 °C, high affinity site",-11.98 kcal/mol
same,van't Hoff enthalpy,"[3]; 25 °C, low affinity site",-24.69 kcal/mol
same,ΔG°,"[3]; High affinity site, 25 °C",-6.05 ± 0.10 kcal/mol
same,ΔH°,"[3]; High affinity site, 25 °C",-4.41 ± 0.46 kcal/mol
same,TΔS°,"[3]; High affinity site, 30 °C",0.76 ± 0.06 kcal/mol
same,ΔG°,"[3]; High affinity site, 30 °C",-5.94 ± 0.01 kcal/mol
same,ΔH°,"[3]; High affinity site, 30 °C",-5.18 ± 0.07 kcal/mol
same,TΔS°,"[3]; High affinity site, 37 °C",-0.20 ± 0.01 kcal/mol
same,ΔG°,"[3]; High affinity site, 37 °C",-5.93 ± 0.02 kcal/mol
same,ΔH°,"[3]; High affinity site, 37 °C",-6.14 ± 0.15 kcal/mol
same,TΔS°,"[3]; Low affinity site, 25 °C",-2.88 ± 0.40 kcal/mol
same,ΔG°,"[3]; Low affinity site, 25 °C",-4.69 ± 0.10 kcal/mol
same,ΔH°,"[3]; Low affinity site, 25 °C",-7.58 ± 0.96 kcal/mol
same,TΔS°,"[3]; Low affinity site, 30 °C",-5.39 ± 0.35 kcal/mol
same,ΔG°,"[3]; Low affinity site, 30 °C",-4.35 ± 0.02 kcal/mol
same,ΔH°,"[3]; Low affinity site, 30 °C",-9.74 ± 0.34 kcal/mol
same,TΔS°,"[3]; Low affinity site, 37 °C",-6.69 ± 0.36 kcal/mol
same,ΔG°,"[3]; Low affinity site, 37 °C",-4.41 ± 0.03 kcal/mol
same,ΔH°,"[3]; Low affinity site, 37 °C",-11.11 ± 0.69 kcal/mol
same,K b (order of magnitude),[3]; high affinity site,~10^4
same,ΔCP (change in heat capacity),[3]; high affinity site,−0.14±0.11 kcal mol^−1°C^−1
same,K b (order of magnitude),[3]; low affinity site,~10^3
same,ΔCP (change in heat capacity),[3]; low affinity site,−0.28±0.24 kcal mol^−1°C^−1
same,Tm of first sub-transition of HSA (head drawing C00030),"[4]; HSA:HA 1∶5, HSA 18 µM",57.25±0.01 °C
same,Tm of second sub-transition of HSA (head drawing C00031),"[4]; HSA:HA 1∶5, HSA 18 µM",62.51±0.09 °C
same,Tm of third sub-transition of HSA (head drawing C00032),"[4]; HSA:HA 1∶5, HSA 18 µM",73.87±0.04 °C
same,ΔH° of first sub-transition (head drawing C00033),"[4]; HSA:HA 1∶5, HSA 18 µM",54.41 ± 0.10 kcal/mol
same,ΔH° of second sub-transition (head drawing C00034),"[4]; HSA:HA 1∶5, HSA 18 µM",56.13 ± 0.12 kcal/mol
same,ΔH° of third sub-transition (head drawing C00035),"[4]; HSA:HA 1∶5, HSA 18 µM",13.92 ± 0.07 kcal/mol
same,Tm of first sub-transition of HSA (head drawing C00030),"[4]; HSA:HA 1∶10, HSA 18 µM",58.36±0.08 °C
same,Tm of second sub-transition of HSA (head drawing C00031),"[4]; HSA:HA 1∶10, HSA 18 µM",63.83±0.02 °C
same,Tm of third sub-transition of HSA (head drawing C00032),"[4]; HSA:HA 1∶10, HSA 18 µM",73.96±0.03 °C
same,ΔH° of first sub-transition (head drawing C00033),"[4]; HSA:HA 1∶10, HSA 18 µM",68.47 ± 0.80 kcal/mol
same,ΔH° of second sub-transition (head drawing C00034),"[4]; HSA:HA 1∶10, HSA 18 µM",57.37 ± 0.60 kcal/mol
same,ΔH° of third sub-transition (head drawing C00035),"[4]; HSA:HA 1∶10, HSA 18 µM",13.90 ± 0.09 kcal/mol
same,Vmax for hydrolysis of p-NPA by HSA,"[5]; HSA:HA 1∶0.5, HSA 15 µM, 25 °C",0.16 ± 0.02 µM/s
same,Vmax for hydrolysis of p-NPA by HSA,"[5]; HSA:HA 1∶1, HSA 15 µM, 25 °C",0.16 ± 0.01 µM/s
same,Vmax for hydrolysis of p-NPA by HSA,"[5]; HSA:HA 1∶2, HSA 15 µM, 25 °C",0.16 ± 0.02 µM/s
same,Vmax for hydrolysis of p-NPA by HSA,"[5]; HSA:HA 1∶3, HSA 15 µM, 25 °C",0.16 ± 0.01 µM/s
same,Ki,"[5]; competitive, substrate p-NPA, 25 °C, read-out: K i (inhibitor constant) for esterase-like activity of HSA",21.7 µM
same,Mode of inhibition of esterase-like activity of HSA,[5]; substrate p-NPA,competitively
same,concentration of HA,[6]; healthy individual,less than 5 mg/L
same,concentration of HA,[6]; patients with end-stage renal disease,higher than 247±112 mg/L
same,elimination of HA through hemodialysis,[7],64%
